Reference: patent publication US8304238B2, “Cell culture medium and immobilized preparation of cell adhesion protein or peptide” (Nat'l Institute for Environmental Studies, priority 2003, dated 2012)
Where no end group is shown, it is not given here.

Experiments:
[1] = test system: alveolar type II epithelial cells (T2 cells); experiment: Inhibition of T2 cell adhesion to immobilized cell adhesion peptide substrates by heparin treatment; type: cell-based; details: 24-hour culture
Procedure: 100 μg/ml of heparin solution was poured into a well prepared according to the method in Example 6, wherein the cell adhesion peptides were immobilized, and the incubation was conducted for 2 hours. The heparin solution was removed after heparin bound to the immobilized cell adhesion peptides, and T2 cell suspension was seeded on the well.
It is theoretically shown that after the cell adhesion peptides first bind to heparin and are covered with heparin, the cell adhesion receptors having heparin-like sugar chain (heparan sulfate) present on the cell surface, in other words, syndecan, a protein that belongs to heparan sulfate proteoglycan, cannot bind to the cell adhesion peptides by using the sugar chain part of the heparan sulfate, thereby the cell adhesion is inhibited.

[2] = test system: alveolar type II epithelial cells (T2 cells); experiment: Binding strength (affinity) of immobilized LN peptides to T2 cells relative to immobilized FIB-1 (mixed immobilization, free FIB-1 competition); type: cell-based; parameters: key to Binding strength to T2 cells, Comprehensive evaluation: AA: extremely strongly binding/adhering; A: strongly binding/adhering; B: intermediately binding/adhering (as the same degree as FIB-1 peptide); C: more weakly binding/adhering than FIB-1 peptide
Procedure: Therefore, the amount of FIB-1 peptide was set at 0.25 mg/ml, and AG73 peptide was mixed therewith, while changing its concentration ratio, from 1/1.250 of FIB-1 in an amount which is 0.20 μg/ml, to ½ of FIB-1 in an amount which is 0.125 mg/ml, and the mixture was immobilized on a well wherein a hydrophobic binding-adsorptive polymer MMAC was coated. The amount of cell adhesion in the case where T2 cells were cultured under a serum-free condition for 1 day on the immobilized peptides is shown in FIG. 9, in comparison with the case where the culture was conducted on the immobilized FIB-1, which was set at 100%.
However, in a case that the ratio of FIB-1:AG73 increased to 1:0.02, because T2 cells already transited to be adherent through the immobilized AG73 peptide, free FIB-1 peptide could no longer inhibit the cell adhesion. […] Likewise, with regard to A3G72 and A4G82 peptides, because the mixing ratio at the transitional midpoint=0.1, their binding strength to T2 cells is 10 times as much as that of FIB-1.
The method used in FIGS. 8 and 9 is extremely effective as a convenient method by which a relative order can be measured concerning to the binding strength (affinity) of cell adhesion peptides and the strength of cell adhesion can be considered quantitatively.
In Table 1, the classification is shown based on the results of the affinity (bonding/adhesion strength) between FIB-1 peptide containing RGD amino acid sequence of FN molecule, a binding site to integrin, and T2 cells: laminin α-chain G-domain peptides are classified into class AA, extremely strong binding/adhesion; class A, strong adhesion; class B, adhesion as the same degree as FIB-1; and class C, binding weaker than the described above.

[3] = test system: alveolar type II epithelial cells (T2 cells); experiment: Inhibition by free cell adhesion peptides of T2 cell adhesion to coated cell adhesion proteins FN, Col I, LN, VN; type: cell-based; details: free peptide 0.25 mg/ml; serum-free, 1 day
Procedure: Commercially available FN, LN and VN, usually used as cell adhesion proteins at cell culture, were coated to wells at the concentrations of 5 μg/ml, 10 μg/ml and 10 μg/ml, respectively. In case of Col I (collagen type I), Col I at the concentration of 100 μg/ml, dissolved in 1 mM HCl, was poured into a well, left stand still for a while, and then the solution was removed and air-drying was conducted, and rinsed with the medium, before use. Next, 6×10^5 cells/ml of alveolar type II epithelial cells (T2 cells) suspended in the serum-free DMEM medium was seeded by 100 μl each on a 96-well to which the extracellular matrix was coated, and cultured in a CO2 incubator at 37° C. for 1 day. After the culture was finished, the cells were fixed with 100 μl of methanol for 5 minutes, and stained for 30 minutes with 50 μl of 0.4% crystal violet. Excessive staining was washed with water, then the number of cells adhered to FN, Col I, LN and VN, which had been coated to the wells, was counted based on the absorbance of cytoplasm (A595).
On the other hand, among amino acid sequences of various LN molecules, the sequences that induce cell adhesion are known to be present. […] Then, the number of cells was counted in accordance with the method described above.

[4] = test system: alveolar type II epithelial cells (T2 cells); experiment: Inhibition of T2 cell adhesion by free peptide different from the immobilized peptide substrate; type: cell-based
Procedure: Results obtained by adding the free peptides different from the immobilized peptides when T2 cells were cultured on the immobilized peptide prepared according to the method in Example 7, were shown in FIG. 8.
When adding the free peptides that were the same as the immobilized peptides in the culture medium, the both (free and immobilized) peptides compete for syndecan of T2 cells and as a result, the cell adhesion is inhibited (see Example 7). So far, four types of syndecans are genetically known. Whether these syndecans are commonly owned or accommodated by each peptide, overlapping only by some degrees, otherwise mutually exclusive, was examined herein.

[5] = test system: alveolar type II epithelial cells (T2 cells); experiment: Time course of cell adhesion/spreading of T2 cells on immobilized cell adhesion peptide substrates; type: cell-based; details: 24-hour culture
Procedure: Culture was conducted by using the cell adhesion peptides immobilized on a well and T2 cells, for 1-24 hours according to the method in Example 8.
As cell adhesion peptides, AG73 was used in B, E and M, FIB-1 was used in C, L and O, A3G72 was used in F, A4G82 was used in G and N, A5G71 was used in H, A5G77 was used in I, hA3G75 was used in J, and hA3G83 was used in K; FN was used as a standard substance in A and D.

[6] = test system: alveolar type II epithelial cells (T2 cells); experiment: Static and forced stretching culture of T2 cells on MMAC-coated silicone wells with immobilized proteins or peptides; type: cell-based
Procedure: A silicone well coated with MMAC was obtained by pouring 0.5 ml of ethanol solution of 50 μg/ml of MMAC (ISP, International Specialty Products, USA) into a silicone well with a groove of 20 mm×20 mm×10 mm, absorbing excess solution, and conducting air-drying.
Into the silicone wells coated by the method described in Example 1, 10 μg/ml of cell adhesion protein solution of fibronectin (FN), laminin-1 (LN), dissolved in 0.1 M triethanolamine buffer solution of pH 8.8, or 0.25 mg/ml of cell adhesion peptide solution of FIB-1, AG73 was poured respectively, and the reaction was conducted for at least several hours at 37° C. to bind and immobilize these proteins or peptides having cell adhesion activity (see Example 6 described later for particulars of immobilization). Subsequently, alveolar type II epithelial cell (T2 cells) suspension was poured, 5×10^4/cm^2 per unit area, and the culture was started in a CO2 culture apparatus.
T2 cells, 2×10^5/cm^2 per unit area, were seeded on the silicone well wherein the cell adhesion proteins or peptides were immobilized, which had been prepared in an almost same manner as that of Example 2, and static culture was conducted for 1 day. After confirming that the seeded cells confluently spread all over the culture face, horizontal cell stretching was forcibly started at the stretching degree of twenty five percents and at the frequency of 15 times per minute, by using cell culture stretching apparatus (Scholar Tec), and the culture was continued one more day. After the culture was finished, photographs of cell adhesion state were taken with a phase contrast microscope (FIG. 2, top 4 rows).
T2 cells, 5×10^4/cm^2 per unit area, were seeded on the silicone well wherein the cell adhesion proteins or peptides were immobilized, which had been prepared in an almost same manner as that of Example 2, and static culture was conducted for 3 days. T2 cells grew in a manner similar to that shown in FIG. 1, 3d (results are not shown because they are overlapping). Then, the cells were subjected to the same stimuli of forced stretching as in Example 1, and the culture was continued one more day. After the culture was finished, photographs of cell adhesion state were taken with a phase contrast microscope (FIG. 2, middle 4 rows) (FN, 3dC-1dS, LN, 3dC-1dS, FIB-1, 3dC-1dS, and AG-73, 3dC-1dS).
Forced stretching culture was conducted for 3 days in an almost same manner as stretching culture of Example 4. After the culture was finished, photographs of cell adhesion state were taken with a phase contrast microscope (FIG. 2, bottom 4 rows) (FN, 3dC-3dS, LN, 3dC-3dS, FIB-1, 3dC-3dS, and AG-73, 3dC-3dS).

[7] = test system: alveolar type II epithelial cells (T2 cells); details: known, usual requirement; cited from earlier work

Sequence: YAVTGRGDSPAS [reference compound]
- Inhibition of cell adhesion to immobilized peptide by heparin treatment ([1]; 100 μg/ml heparin 2 hours): no inhibition
- Inhibition degree of cell adhesion, Heparin ([1]; immobilized peptide treated with 100 μg/ml heparin 2 hours): No
- Binding strength to T2 cells, Comprehensive evaluation ([2]; classification relative to FIB-1 peptide): B
- Binding strength to T2 cells, Ratio to FIB-1 ([2]; inverse of mixing ratio at transitional midpoint, FIB-1 0.25 mg/ml, MMAC-coated well): (1)
- Inhibition of adhesion of T2 cells to FN, Col I, LN and VN by free peptide [3]: does not exhibit inhibitory effect
- Inhibition by free peptide of T2 cell adhesion to immobilized AG73 ([4]; AG73 (etc.) immobilized): no inhibition occurred
- Inhibition by free peptide of T2 cell adhesion to immobilized AG73 and A4G82 peptides ([4]; AG73 and A4G82 immobilized): could not inhibit
- Inhibition by free peptide of T2 cell adhesion to immobilized AG81.2 and AG73T ([4]; AG81.2 and AG73T immobilized): inhibited the adhesion
- Inhibition by free peptide of T2 cell adhesion to immobilized FIB-1 ([4]; FIB-1 immobilized): competitively inhibited
- Cell adhesion/spreading on immobilized peptide [5]: almost all cells had finished spreading
- Reorientation of T2 cells under forced stretching ([6]; 1 day static, 1 day stretching (1dC-1dS), 25 percent, 15 times per minute): spread in an elongated shape to a direction perpendicular to the direction of forced stretching
- Change of type II epithelial cells into a shape like type I epithelial cells ([6]; 3 days static, 3 days stretching (3dC-3dS)): less observed
- Concentration of free FIB-1 peptide required to inhibit adhesion to FN [7]: ≥ 1 mg/mL
